Data: BindingDB's records for doi:10.2165/00003495-200262180-00006 (Adis International, 2002)

Biological target: Prostaglandin G/H synthase 1 (Homo sapiens, UniProt P23219)
Sequence (P23219 whole entry): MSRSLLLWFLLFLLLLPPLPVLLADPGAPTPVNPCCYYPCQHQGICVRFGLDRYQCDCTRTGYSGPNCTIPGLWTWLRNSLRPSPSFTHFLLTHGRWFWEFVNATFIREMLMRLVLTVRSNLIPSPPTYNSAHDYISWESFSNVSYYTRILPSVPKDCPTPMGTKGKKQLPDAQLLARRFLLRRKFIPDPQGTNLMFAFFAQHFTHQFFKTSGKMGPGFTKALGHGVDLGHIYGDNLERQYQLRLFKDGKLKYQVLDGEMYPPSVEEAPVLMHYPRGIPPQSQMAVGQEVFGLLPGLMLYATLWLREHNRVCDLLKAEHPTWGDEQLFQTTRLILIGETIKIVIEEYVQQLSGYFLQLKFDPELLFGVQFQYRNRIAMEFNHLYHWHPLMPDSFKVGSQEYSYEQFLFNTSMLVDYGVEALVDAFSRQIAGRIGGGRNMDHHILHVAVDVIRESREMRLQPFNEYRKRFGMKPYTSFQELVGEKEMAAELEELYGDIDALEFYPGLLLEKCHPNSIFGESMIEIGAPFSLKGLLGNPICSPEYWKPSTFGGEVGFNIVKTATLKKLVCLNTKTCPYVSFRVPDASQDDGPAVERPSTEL

In the case of `Cc1ccc(-c2ncc(Cl)cc2-c2ccc(S(C)(=O)=O)cc2)cn1`, the Ki is reported as > 10 µM.
